The source of these data is article PMC11093748, “De novo identification of CD4^+ T cell epitopes” (Nature Methods, 2024).

Assay type in all cases: cell-based, mouse
In one assay the test system is TCR 4 Analog 1. Description: Single SABR-II co-incubation, TCR analogs. The settings on record: Fig 4B. From the text:
(§1) We hypothesized that computational grouping of TCR specificities may reveal closely related TCRs that potentially recognize the same epitope(s), similar to the reverse epitope discovery approach (Fig. 4a). In the absence of experimental antigen discovery, grouping of TCRs is not informative of reactivity; however, we hypothesized that TCRs that co-clustered with SABR-II de-convoluted TCRs bind to the same antigens. To test this, we used three TCR-similarity search algorithms: GLIPH2 (refs. [38],[69]), tcrdist3 (ref. [37]) and CoNGA[39]. All three algorithms take slightly different approaches to group TCR sequences and generate clusters of TCR sequences that share high sequence similarity. In addition, CoNGA considers the transcriptional similarities among T cell clones. Using CoNGA, we defined TCR clusters for two TCRs, TCR4 and TCR6B, and identified analogs that slightly differed in sequences. Moreover, for TCR30, we were able to identify six TCR analogs that co-clustered in CoNGA analysis as well as GLIPH2. For TCR11, we first identified a gene expression (GEX) cluster that had ~50 TCRs that clustered based on gene expression. Using tcrdist3, we calculated the relative distance of each of these TCRs from TCR11 and selected the top seven clonotypes for expression. Together, 16 TCRs were identified as analogs of the experimentally de-convoluted TCRs (Extended Data Fig. 8). These TCRs were cloned and expressed in Jurkat cells. We performed co-incubation assays using single SABR-IIs and observed that 5 of 16 TCRs recognized the same epitopes as the parental TCRs (Fig. 4b). As a result, we were able to identify the cognate epitopes of five additional TCRs from our dataset that had otherwise not been selected for SABR-II screening based on our clonal expansion cutoff.
(§2) Exported clonotypes were used as inputs for GLIPH2 (ref. [69]). For CoNGA, the merged dataset was exported as a .h5ad file and used as an input along with the CellRanger vdj output file. CoNGA analysis was performed using default parameters. Pairwise relative distances among TCRs were calculated using tcrdist3 (ref. [37]). CoNGA, tcrdist3 and GLIPH2 output files were searched manually for analogs that co-cluster with experimentally de-convoluted TCRs. Analogs were synthesized and cloned as described above.
(§3) For SABR library screens, 3 × 10^6 NFAT–GFP Jurkat cells expressing the SABR library were labeled with CellTrace Violet (BioLegend) according to the manufacturer’s protocol before incubation with 3 × 10^6 Jurkat cells expressing the TCR of interest. These mixtures were incubated in a six-well plate for 16–20 h. Cells were stained with anti-CD69-APC-Cy7 where indicated (BioLegend) and the top 1–2% of GFP^+CD69^+ cells were sorted for genomic DNA extraction, indexing and sequencing (see below). Multiplexed assays were scaled on a per-TCR basis (for example 3 × 10^6 for each of three TCRs against 9 × 10^6 library cells). For single SABR assays, unless otherwise defined, 5 × 10^5 SABR expressing NFAT–GFP Jurkat cells (or 5KC cells) were labeled with CellTrace Violet (BioLegend) according to the manufacturer’s protocol before incubation with 5 × 10^5 TCR-expressing Jurkat cells (or 5KC cells) in a round-bottom 96-well plate for 16–20 h. Cells were stained with anti-CD69-APC-Cy7 when indicated and acquired on the Attune NxT flow cytometer (Thermo Fisher Scientific). All flow analysis was performed using FlowJo (BD). For Daudi cell co-culture, 1 × 10^6 Jurkat cells expressing the TCR of interest were incubated with 1 × 10^6 Daudi cells expressing a SABR of interest for 3 days. On day 3, cells were labeled with anti-RT1B-PE and anti-Fas-APC-Cy7 before being acquired on the Attune NxT flow cytometer.

For another assay, the system named is TCR3. Kind of assay: Single SABR-II co-incubation, NFAT-GFP Jurkat. The note with it: TCR 3, Fig 5C.
Excerpt: Given the predominance of HIP-reactive TCRs, we hypothesized that there may be other TCRs that respond to HIPs that were not encoded in our initial library configuration. While the initial I-Ag7 SABR-II library consisted of a number of HIPs, HIP formation is thought to be more widespread in pancreatic β-cells[52],[70]. Therefore, we sought to construct a defined, HIP-focused library to probe whether there were any undiscovered HIP-reactive TCRs that could be recognized by the clonally expanded TCR in our dataset. To test this, we utilized a published proteomic dataset, which predicted that several proteins that were highly expressed in secretory granules of β-cells may contribute to HIP formation. Using their predictions, we built a theoretical HIP library, in which all possible ‘left’ halves of the insulin C chain derived from natural cleavage products were fused to ‘right’ halves derived from secretory granule proteins (Fig. 5a). This 2,561-epitope library (12–25 amino acids per epitope) consisted of only HIPs and a small number of positive control epitopes (Supplementary Table 5). We screened the top three clonally expanded TCRs (TCR1, TCR2 and TCR3) against this library, as these TCRs had not been de-convoluted using the original library. […] To confirm that the HIP itself was important for the cognate interaction, we cloned single 14-mer epitopes into SABR-IIs consisting of seven amino acids of the left portion of the HIP and seven amino acids of the right portion of the HIP. In this way, no nine amino acids from either peptide sequence alone could occupy the binding pocket of I-Ag7, ensuring that TCR reactivity spanned the HIP junction. […] Of note, in all the epitopes that were tested, the ‘left’ half derived from insulin C was conserved, whereas the ‘right’ halves were derived from several other proteins (Fig. 5d). […] Moreover, the promiscuous binding of TCR3 to HIPs corroborates evidence from other NOD mouse-derived TCRs reacting to multiple HIPs[72].
as §3

The next assay concerns TCR 11 Analog 5. Description: Single SABR-II co-incubation, TCR analogs. The settings on record: Fig 4B.
Excerpt: as §1, §2, §3

Another assay relates to TCR 30 Analog 1. Kind of assay: Single SABR-II co-incubation, TCR analogs. The settings on record: Fig 4B.
Excerpt: as §1, §2, §3

In another assay the test system is TCR 30 Analog 2. Description: Single SABR-II co-incubation, TCR analogs. The note with it: Fig 4B.
Excerpt: as §1, §2, §3

In another assay the test system is TCR 30 Analog 6. Description: Single SABR-II co-incubation, TCR analogs. The settings on record: Fig 4B.
Excerpt: as §1, §2, §3

The subject of the next assay is TCR 11 Analog 6. Kind of assay: Single SABR-II co-incubation, TCR analogs. The note with it: Fig 4B.
Excerpt: as §1, §2, §3

A further assay has as its system TCR 11 Analog 7. Kind of assay: Single SABR-II co-incubation, TCR analogs. The settings on record: Fig 4B.
Excerpt: as §1, §2, §3

A further assay relates to TCR 30 Analog 5. Description: Single SABR-II co-incubation, TCR analogs. The note with it: Fig 4B.
Excerpt: as §1, §2, §3

Consider LQTLALNAARDP, for which the “%GFP+CD69+ cells of SABR-NFAT-GFP-Jurkat cells” value (from here on “%GFP+CD69+ cells”) in the assay on TCR 4 Analog 1 (technical replicate 1) stood at 1.53%; in the assay with TCR 4 Analog 1 (technical replicate 2) it was 1.83%; in the assay with TCR3 (technical replicate 1), 0.94%; with TCR3 (technical replicate 2), 0.89%.

On to SHLVEALYLVCGERG, for which the “%GFP+CD69+ cells” value in the assay on TCR 11 Analog 5 (technical replicate 1) is reported as 20.3%; in the assay with TCR 11 Analog 5 (technical replicate 2), 19.7%; with TCR 30 Analog 1 (replicate 1), 3.25%; in the assay with TCR 30 Analog 1 (replicate 2) it was 3.04%; in the assay on TCR 30 Analog 1 (replicate 3), 3.1%; with TCR 30 Analog 2 (replicate 1) it was 19.2%. For the same sequence, the “%GFP+CD69+ cells” value with TCR 30 Analog 2 (replicate 2) is listed as 19%; in the assay with TCR 30 Analog 2 (replicate 3), 20%; in the assay with TCR 30 Analog 6 (replicate 1), 1.04%; in the assay with TCR 30 Analog 6 (replicate 2), 1.01%; in the assay with TCR 30 Analog 6 (replicate 3) it was 0.97%; in the assay with TCR 11 Analog 6 (technical replicate 1), 1%. For the same sequence, the “%GFP+CD69+ cells” value is listed as 1.08% in the assay with TCR 11 Analog 6 (technical replicate 2); 0.78% in the assay on TCR 11 Analog 7 (technical replicate 1); 1.05% in the assay on TCR 11 Analog 7 (technical replicate 2); 34.3% in the assay on TCR 30 Analog 5 (replicate 1); 35.1% with TCR 30 Analog 5 (replicate 2); 34.2% in the assay with TCR 30 Analog 5 (replicate 3).
